Structures can show the parent of a compound that is named as a salt.
System: XBP1s-luc 293 LUC
Experiment: cellular PD assay, XBP1s-LUC reporter (Example 903)
Type: cell-based
Details: Table 2; read-out: XBP1s-luc 293 LUC (IC50)
How it was run: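 A luciferase fusion, in frame and expressed only when the XBP1 transcript is spliced, served as the readout of cellular IRE1α activity in an XBP1-Luc reporter line.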

Point of comparison: Cc1ccc2c(NS(=O)(=O)N(C)C3CC3)c(F)ccc2c1Oc1ncccc1-c1ccnc(N[C@H]2CCCNC2)n1 [Example 440, 4-[2-[[5-[[Cyclopropyl(methyl)sulfamoyl]amino]-6-fluoro-2-methyl-1-naphthyl]oxy]-3-pyridyl]-2-[[(3S)-3-piperidyl]amino]pyrimidine hydrochloride], IC50 26 nM. Against it:
- Cc1ccc2c(NS(=O)(=O)Cc3ccc(C#N)cc3)c(F)ccc2c1Oc1ncccc1-c1ccnc(N[C@H]2CCCNC2)n1 [Example 426, (S)-1-(4-Cyanophenyl)-N-(2-fluoro-6-methyl-5-((3-(2-(piperidin-3-ylamino)pyrimidin-4-yl)pyridin-2-yl)oxy)naphthalen-1-yl)methanesulfonamide hydrochloride] — 5.2-fold lower, 5 nM
- Cc1ccc2c(NS(=O)(=O)N(C)CC(F)(F)F)c(F)ccc2c1Oc1ncccc1-c1ccnc(N[C@H]2CCCNC2)n1 [Example 427, 4-[2-[[6-Fluoro-2-methyl-5-[[methyl(2,2,2-trifluoroethyl)sulfamoyl]amino]-1-naphthyl]oxy]-3-pyridyl]-2-[[(3S)-3-piperidyl]amino]pyrimidine hydrochloride] — 4.3-fold lower, 6 nM
- Cc1ccc2c(NS(=O)(=O)N3CCCC3)c(F)ccc2c1Oc1ncccc1-c1ccnc(N[C@H]2CCCNC2)n1 [Example 428, N-[2-Fluoro-6-methyl-5-[[3-[2-[[(3S)-3-piperidyl]amino]pyrimidin-4-yl]-2-pyridyl]oxy]-1-naphthyl]pyrrolidine-1-sulfonamide hydrochloride] — within 1.5-fold, 28 nM
- COc1cccc(CS(=O)(=O)Nc2c(F)ccc3c(Oc4ncccc4-c4ccnc(N[C@H]5CCCNC5)n4)c(C)ccc23)c1 [Example 429, (S)—N-(2-Fluoro-6-methyl-5-((3-(2-(piperidin-3-ylamino)pyrimidin-4-yl)pyridin-2-yl)oxy)naphthalen-1-yl)-1-(3-methoxyphenyl)methanesulfonamide hydrochloride] — 5.2-fold lower, 5 nM
- COCCCNc1cccc2c(Oc3ncccc3-c3ccnc(N[C@H]4CCCNC4)n3)c(C)ccc12 [Example 430, 4-[2-[[5-(3-Methoxypropylamino)-2-methyl-1-naphthyl]oxy]-3-pyridyl]-N-[(3S)-3-piperidyl]pyrimidin-2-amine hydrochloride] — 11-fold higher, 275 nM
- COCCS(=O)(=O)Nc1c(F)ccc2c(Oc3ncccc3-c3ccnc(N[C@@H]4CNC[C@H](C)C4)n3)c(C)ccc12 [Example 431, N-[2-Fluoro-6-methyl-5-[[3-[2-[[(3S,5R)-5-methyl-3-piperidyl]amino]pyrimidin-4-yl]-2-pyridyl]oxy]-1-naphthyl]-2-methoxy-ethanesulfonamide hydrochloride] — within 1.5-fold, 34 nM
- Cc1ccc2c(NS(=O)(=O)CC3CC(F)(F)C3)c(F)ccc2c1Oc1ncccc1-c1ccnc(N[C@H]2CCCNC2)n1 [Example 433, (S)-1-(3,3-Difluorocyclobutyl)-N-(2-fluoro-6-methyl-5-((3-(2-(piperidin-3-ylamino)pyrimidin-4-yl)pyridin-2-yl)oxy)naphthalen-1-yl)methanesulfonamide] — 2.9-fold higher, 76 nM
- Cc1ccc2c(NS(=O)(=O)Cc3ccccc3C#N)c(F)ccc2c1Oc1ncccc1-c1ccnc(N[C@H]2CCCNC2)n1 [Example 434, (S)-1-(2-Cyanophenyl)-N-(2-fluoro-6-methyl-5-((3-(2-(piperidin-3-ylamino)pyrimidin-4-yl)pyridin-2-yl)oxy)naphthalen-1-yl)methanesulfonamide hydrochloride] — 4.3-fold lower, 6 nM
- COc1c(Cl)cccc1CS(=O)(=O)Nc1c(F)ccc2c(Oc3ncccc3-c3ccnc(N[C@H]4CCCNC4)n3)c(C)ccc12 [Example 437, (S)-1-(3-Chloro-2-methoxyphenyl)-N-(2-fluoro-6-methyl-5-((3-(2-(piperidin-3-ylamino)pyrimidin-4-yl)pyridin-2-yl)oxy)naphthalen-1-yl)methanesulfonamide hydrochloride] — within 1.5-fold, 18 nM
- Cc1ccc2c(NS(=O)(=O)Cc3ccc(C(F)F)cc3)c(F)ccc2c1Oc1ncccc1-c1ccnc(N[C@H]2CCCNC2)n1 [Example 438, (S)-1-(4-(Difluoromethyl)phenyl)-N-(2-fluoro-6-methyl-5-((3-(2-(piperidin-3-ylamino)pyrimidin-4-yl)pyridin-2-yl)oxy)naphthalen-1-yl)methanesulfonamide hydrochloride] — 5.2-fold lower, 5 nM
- Cc1ccc2c(NS(=O)(=O)CC(F)(F)C(F)(F)F)c(F)ccc2c1Oc1ncccc1-c1ccnc(N[C@H]2CCCNC2)n1 [Example 439, (S)-2,2,3,3,3-Pentafluoro-N-(2-fluoro-6-methyl-5-((3-(2-(piperidin-3-ylamino)pyrimidin-4-yl)pyridin-2-yl)oxy)naphthalen-1-yl)propane-1-sulfonamide hydrochloride] — 6-fold higher, 155 nM
- Cc1ccc2c(NS(=O)(=O)N(C)CCC(F)(F)F)c(F)ccc2c1Oc1ncccc1-c1ccnc(N[C@H]2CCCNC2)n1 [Example 441, 4-[2-[[6-Fluoro-2-methyl-5-[[methyl(3,3,3-trifluoropropyl)sulfamoyl]amino]-1-naphthyl]oxy]-3-pyridyl]-2-[[(3S)-3-piperidyl]amino]pyrimidine hydrochloride] — 1.8-fold higher, 48 nM
- Cc1ccc2c(NS(=O)(=O)CCC(C)(F)F)c(F)ccc2c1Oc1ncccc1-c1ccnc(N[C@H]2CCCNC2)n1 [Example 442, (S)-3,3-Difluoro-N-(2-fluoro-6-methyl-5-((3-(2-(piperidin-3-ylamino)pyrimidin-4-yl)pyridin-2-yl)oxy)naphthalen-1-yl)butane-1-sulfonamide hydrochloride] — 1.5-fold higher, 40 nM
- Cc1ccc2c(NS(=O)(=O)Cc3noc4ccccc34)c(F)ccc2c1Oc1ncccc1-c1ccnc(N[C@H]2CCCNC2)n1 [Example 443, (S)-1-(Benzo[d]isoxazol-3-yl)-N-(2-fluoro-6-methyl-5-((3-(2-(piperidin-3-ylamino)pyrimidin-4-yl)pyridin-2-yl)oxy)naphthalen-1-yl)methanesulfonamide hydrochloride] — 3.2-fold lower, 8 nM
- CCO[C@@H](CNc1cccc2c(Oc3ncccc3-c3ccnc(N[C@H]4CCCNC4)n3)c(C)ccc12)C(F)(F)F [Example 445, 4-(2-((5-(((S)-2-Ethoxy-3,3,3-trifluoropropyl)amino)-2-methylnaphthalen-1-yl)oxy)pyridin-3-yl)-N—((S)-piperidin-3-yl)pyrimidin-2-amine hydrochloride] — 3-fold higher, 78 nM
- Cc1ccc2c(NS(=O)(=O)Cc3nn(C)cc3Cl)c(F)ccc2c1Oc1ncccc1-c1ccnc(N[C@H]2CCCNC2)n1 [Example 448, 1-(4-Chloro-1-methyl-pyrazol-3-yl)-N-[2-fluoro-6-methyl-5-[[3-[2-[[(3S)-3-piperidyl]amino]pyrimidin-4-yl]-2-pyridyl]oxy]-1-naphthyl]methanesulfonamide hydrochloride] — within 1.5-fold, 19 nM
- Cc1ccc2c(NS(=O)(=O)Cc3ccn(C)n3)c(F)ccc2c1Oc1ncccc1-c1ccnc(N[C@H]2CCCNC2)n1 [Example 449, N-[2-Fluoro-6-methyl-5-[[3-[2-[[(3S)-3-piperidyl]amino]pyrimidin-4-yl]-2-pyridyl]oxy]-1-naphthyl]-1-(1-methylpyrazol-3-yl)methanesulfonamide hydrochloride] — within 1.5-fold, 25 nM
- COCCCS(=O)(=O)Nc1c(F)ccc2c(Oc3ncccc3-c3ccnc(N[C@H]4CCCNC4)n3)c(C)ccc12 [Example 450, (S)—N-(2-Fluoro-6-methyl-5-((3-(2-(piperidin-3-ylamino)pyrimidin-4-yl)pyridin-2-yl)oxy)naphthalen-1-yl)-3-methoxypropane-1-sulfonamide hydrochloride] — 4-fold higher, 104 nM
- O=S(=O)(CCC(F)(F)F)Nc1cccc2c(Oc3ncccc3-c3ccnc(N[C@H]4CCCNC4)n3)cccc12 [Example 451] — 13-fold higher, 345 nM
- O=S(=O)(Cc1ccccc1)Nc1cccc2c(Oc3ncccc3-c3ccnc(N[C@H]4CCCNC4)n3)cccc12 [Example 452, (S)-1-Phenyl-N-(5-((3-(2-(piperidin-3-ylamino)pyrimidin-4-yl)pyridin-2-yl)oxy)naphthalen-1-yl)methanesulfonamide] — within 1.5-fold, 19 nM
- Cc1ccc2c(NS(=O)(=O)CC3(F)CC3)c(F)ccc2c1Oc1ncccc1-c1ccnc(N[C@H]2CCCNC2)n1 [Example 453, (S)—N-(2-Fluoro-6-methyl-5-((3-(2-(piperidin-3-ylamino)pyrimidin-4-yl)pyridin-2-yl)oxy)naphthalen-1-yl)-1-(1-fluorocyclopropyl)methanesulfonamide hydrochloride] — within 1.5-fold, 18 nM
- CCC(F)(F)CS(=O)(=O)Nc1c(F)ccc2c(Oc3ncccc3-c3ccnc(N[C@H]4CCCNC4)n3)c(C)ccc12 [Example 456, (S)-2,2-Difluoro-N-(2-fluoro-6-methyl-5-((3-(2-(piperidin-3-ylamino)pyrimidin-4-yl)pyridin-2-yl)oxy)naphthalen-1-yl)butane-1-sulfonamide hydrochloride] — 2.4-fold lower, 11 nM
- CC/C(F)=C/S(=O)(=O)Nc1c(F)ccc2c(Oc3ncccc3-c3ccnc(N[C@H]4CCCNC4)n3)c(C)ccc12 [Example 457, (S,Z)-2-Fluoro-N-(2-fluoro-6-methyl-5-((3-(2-(piperidin-3-ylamino)pyrimidin-4-yl)pyridin-2-yl)oxy)naphthalen-1-yl)but-1-ene-1-sulfonamide hydrochloride] — 4-fold higher, 105 nM
- Cc1ccc2c(NS(=O)(=O)c3cccc4c3ccn4C)c(F)ccc2c1Oc1ncccc1-c1ccnc(N[C@H]2CCCNC2)n1 [Example 458, N-[2-Fluoro-6-methyl-5-[[3-[2-[[(3S)-3-piperidyl]amino]pyrimidin-4-yl]-2-pyridyl]oxy]-1-naphthyl]-1-methyl-indole-4-sulfonamide] — within 1.5-fold, 19 nM
- Cc1ccc2c(NCC(=O)C3CC3)cccc2c1Oc1ncccc1-c1ccnc(N[C@H]2CCCNC2)n1 [Example 459, (S)-1-Cyclopropyl-2-((6-methyl-5-((3-(2-(piperidin-3-ylamino)pyrimidin-4-yl)pyridin-2-yl)oxy)naphthalen-1-yl)amino)ethanone hydrochloride] — 12-fold higher, 312 nM
- Cc1ccc2c(NC(=O)C3CC34CC4)c(F)ccc2c1Oc1ncccc1-c1ccnc(N[C@H]2CCCNC2)n1 (stereo partly drawn) [Example 465, N-(2-Fluoro-6-methyl-5-((3-(2-(((S)-piperidin-3-yl)amino)pyrimidin-4-yl)pyridin-2-yl)oxy)naphthalen-1-yl)spiro[2.2]pentane-1-carboxamide] — 2.2-fold higher, 57 nM

Source: US10968203B2, “Pyrimidinyl-pyridyloxy-naphthyl compounds and methods of treating IRE1-related diseases and disorders” (Genentech, Inc., priority 2017, dated 2021)
